Measurements as given in patent US20260115265A1, “METHODS AND COMPOSITIONS FOR PREVENTING OR TREATING FOOD ALLERGIES” (Revolo Biotherapeutics Limited, priority 2022, published 2026).
Like-named read-outs stand apart in the source and are kept apart here. Ends that are not written are not given here.

Assay: Serum/plasma pharmacokinetics (half-life)
Type: in vivo

For DGSVVVNKVSELPAGHGLNVNTLSYGDLAAD ['1104], the half-life (in vivo, across species, read-out: half-life) was 10 to 15 min and the half-life (serum, read-out: serum PK) was roughly 15 min.
